Results as given in PubChem BioAssay (NCI).
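Following 48 hours of exposure in 96-well plates, responses at five concentrations were used to interpolate endpoints linearly. GI50: concentration for 50% inhibition of growth. TGI: concentration producing complete growth inhibition.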

Key:
Assay in all cases: growth of human tumour cells (NCI), 48 h
U251 CNS = system: U251 CNS
UACC-62 melanoma = system: UACC-62 melanoma
PC-3 prostate = system: PC-3 prostate
HT29 colon = system: HT29 colon
SN12C renal = system: SN12C renal
SK-OV-3 ovarian = system: SK-OV-3 ovarian
MOLT-4 leukemia = system: MOLT-4 leukemia
CAKI-1 renal = system: CAKI-1 renal
OVCAR-5 ovarian = system: OVCAR-5 ovarian
TK-10 renal = system: TK-10 renal
LOX IMVI melanoma = system: LOX IMVI melanoma
T-47D breast = system: T-47D breast
HCC-2998 colon = system: HCC-2998 colon
SK-MEL-5 melanoma = system: SK-MEL-5 melanoma
OVCAR-4 ovarian = system: OVCAR-4 ovarian
HS 578T breast = system: HS 578T breast
NCI-H23 lung = system: NCI-H23 lung
CCRF-CEM leukemia = system: CCRF-CEM leukemia
SNB-19 CNS = system: SNB-19 CNS
MDA-MB-435 = system: MDA-MB-435
HOP-62 NSCLC = system: HOP-62 NSCLC
MDA-MB-231 breast = system: MDA-MB-231 breast
OVCAR-3 ovarian = system: OVCAR-3 ovarian
SK-MEL-28 melanoma = system: SK-MEL-28 melanoma
NCI-H226 lung = system: NCI-H226 lung
MALME-3M melanoma = system: MALME-3M melanoma
IGROV1 ovarian = system: IGROV1 ovarian
A498 renal = system: A498 renal
SF-539 CNS = system: SF-539 CNS
SNB-75 CNS = system: SNB-75 CNS
SF-295 CNS = system: SF-295 CNS
COLO 205 colon = system: COLO 205 colon
HCT-15 colon = system: HCT-15 colon
KM12 colon = system: KM12 colon
HL-60(TB) leukemia = system: HL-60(TB) leukemia
NCI-H522 lung = system: NCI-H522 lung
M14 melanoma = system: M14 melanoma
SR leukemia = system: SR leukemia
EKVX NSCLC = system: EKVX NSCLC
A549 NSCLC = system: A549 NSCLC
MCF7 breast = system: MCF7 breast
SW-620 colon = system: SW-620 colon
RXF 393 renal = system: RXF 393 renal
SK-MEL-2 melanoma = system: SK-MEL-2 melanoma
DU-145 prostate = system: DU-145 prostate
UACC-257 melanoma = system: UACC-257 melanoma
SF-268 CNS = system: SF-268 CNS
ACHN renal = system: ACHN renal
UO-31 renal = system: UO-31 renal
NCI-H460 lung = system: NCI-H460 lung
786-0 renal = system: 786-0 renal

SMILES: Cc1ccc(-c2nc(N3CCCNCC3)c3oc(-c4ccccc4)nc3n2)cc1
- GI50 (U251 CNS): 1.78 µM
- TGI (U251 CNS): 3.17 µM
- GI50 (UACC-62 melanoma): 1.71 µM
- TGI (UACC-62 melanoma): 3.3 µM
- GI50 (PC-3 prostate): 1.57 µM
- TGI (PC-3 prostate): 3 µM
- GI50 (HT29 colon): 1.69 µM
- TGI (HT29 colon): 3.15 µM
- GI50 (SN12C renal): 1.69 µM
- TGI (SN12C renal): 3.21 µM
- GI50 (SK-OV-3 ovarian): 1.89 µM
- TGI (SK-OV-3 ovarian): 3.31 µM
- GI50 (MOLT-4 leukemia): 1.79 µM
- TGI (MOLT-4 leukemia): 3.58 µM
- GI50 (CAKI-1 renal): 1.65 µM
- TGI (CAKI-1 renal): 3.03 µM
- GI50 (OVCAR-5 ovarian): 1.9 µM
- TGI (OVCAR-5 ovarian): 3.38 µM
- GI50 (TK-10 renal): 1.8 µM
- TGI (TK-10 renal): 3.2 µM
- GI50 (LOX IMVI melanoma): 1.71 µM
- TGI (LOX IMVI melanoma): 3.2 µM
- GI50 (T-47D breast): 2.02 µM
- TGI (T-47D breast): 4 µM
- GI50 (HCC-2998 colon): 1.82 µM
- TGI (HCC-2998 colon): 3.27 µM
- GI50 (SK-MEL-5 melanoma): 1.6 µM
- TGI (SK-MEL-5 melanoma): 3.03 µM
- GI50 (OVCAR-4 ovarian): 1.82 µM
- TGI (OVCAR-4 ovarian): 3.55 µM
- GI50 (HS 578T breast): 1.94 µM
- TGI (HS 578T breast): 4.22 µM
- GI50 (NCI-H23 lung): 1.95 µM
- TGI (NCI-H23 lung): 3.71 µM
- GI50 (CCRF-CEM leukemia): 1.31 µM
- TGI (CCRF-CEM leukemia): 3.13 µM
- GI50 (SNB-19 CNS): 1.82 µM
- TGI (SNB-19 CNS): 3.45 µM
- GI50 (MDA-MB-435): 1.77 µM
- TGI (MDA-MB-435): 3.19 µM
- GI50 (HOP-62 NSCLC): 1.84 µM
- TGI (HOP-62 NSCLC): 3.36 µM
- GI50 (MDA-MB-231 breast): 1.77 µM
- TGI (MDA-MB-231 breast): 3.27 µM
- GI50 (OVCAR-3 ovarian): 1.83 µM
- TGI (OVCAR-3 ovarian): 3.38 µM
- GI50 (SK-MEL-28 melanoma): 1.85 µM
- TGI (SK-MEL-28 melanoma): 3.39 µM
- GI50 (NCI-H226 lung): 1.82 µM
- TGI (NCI-H226 lung): 3.97 µM
- GI50 (MALME-3M melanoma): 1.93 µM
- TGI (MALME-3M melanoma): 3.48 µM
- GI50 (IGROV1 ovarian): 1.67 µM
- TGI (IGROV1 ovarian): 3.24 µM
- GI50 (A498 renal): 1.66 µM
- TGI (A498 renal): 3.16 µM
- GI50 (SF-539 CNS): 1.79 µM
- TGI (SF-539 CNS): 3.26 µM
- GI50 (SNB-75 CNS): 1.41 µM
- TGI (SNB-75 CNS): 2.73 µM
- GI50 (SF-295 CNS): 1.93 µM
- TGI (SF-295 CNS): 3.43 µM
- GI50 (COLO 205 colon): 1.89 µM
- TGI (COLO 205 colon): 3.5 µM
- GI50 (HCT-15 colon): 1.4 µM
- TGI (HCT-15 colon): 2.77 µM
- GI50 (KM12 colon): 1.89 µM
- TGI (KM12 colon): 3.45 µM
- GI50 (HL-60(TB) leukemia): 1.35 µM
- TGI (HL-60(TB) leukemia): 3.17 µM
- GI50 (NCI-H522 lung): 1.72 µM
- TGI (NCI-H522 lung): 3.29 µM
- GI50 (M14 melanoma): 1.76 µM
- TGI (M14 melanoma): 3.29 µM
- GI50 (SR leukemia): 0.239 µM
- TGI (SR leukemia): 0.624 µM
- GI50 (EKVX NSCLC): 1.81 µM
- TGI (EKVX NSCLC): 3.33 µM
- GI50 (A549 NSCLC): 1.71 µM
- TGI (A549 NSCLC): 3.12 µM
- GI50 (MCF7 breast): 1.59 µM
- TGI (MCF7 breast): 3.44 µM
- GI50 (SW-620 colon): 1.68 µM
- TGI (SW-620 colon): 3.21 µM
- GI50 (RXF 393 renal): 1.75 µM
- TGI (RXF 393 renal): 3.29 µM
- GI50 (SK-MEL-2 melanoma): 2.03 µM
- TGI (SK-MEL-2 melanoma): 3.77 µM
- GI50 (DU-145 prostate): 1.89 µM
- TGI (DU-145 prostate): 3.4 µM
- GI50 (UACC-257 melanoma): 1.96 µM
- TGI (UACC-257 melanoma): 3.48 µM
- GI50 (SF-268 CNS): 1.83 µM
- TGI (SF-268 CNS): 3.66 µM
- GI50 (ACHN renal): 1.79 µM
- TGI (ACHN renal): 3.22 µM
- GI50 (UO-31 renal): 1.49 µM
- TGI (UO-31 renal): 2.85 µM
- GI50 (NCI-H460 lung): 1.85 µM
- TGI (NCI-H460 lung): 3.5 µM
- GI50 (786-0 renal): 1.43 µM
- TGI (786-0 renal): 2.81 µM
